This data set relates to skin itch. Put plainly: Topical application of chlorhydrate composition to individuals with skin itch. The format is in vivo, human. The procedure:
Three individuals, each complaining of skin itch of undetermined origin, were treated as follows. A composition was prepared at a concentration of aluminum chlorhydrate of about 10 to about 20 weight percent in water and further including a small quantity of a quaternary ammonium compound as a preservative.
An adult individual has applied 30% wt. of aluminum chlorhydrate in a topical cream to an area of the forearm experiencing itch.
An adult complains of itch on their legs.
An adult complaining of itch on their forearms and legs applies an ointment composition including 25% wt. of aluminum zirconium chlorhydrate to the affected areas.
An aqueous composition comprising aluminum chlorhydrate at a concentration of about 20 weight percent is applied to a synthetic fabric wipe and sealed in a tear-open pouch. Subsequently, an adult experiencing itch on their forearms tears open the pouch and wipes the area of the skin with the moist wipe; the wipe and pouch are discarded after use.

Setting [1] is: adult female, legs, 30% wt. in a lotion.
[2] abbreviates: adult male, forearms, aqueous composition about 20 weight percent on synthetic fabric wipe.
The mark [3] stands for this setting: adult male, forearms and legs, ointment composition including 25% wt.

Here are results for 2 substances from patent US7351747B2, “Skin treatment for relief of itch” (priority 2003, dated 2008).

Take aluminum chlorhydrate: under setting [1], the “duration of relief of itch” value is “about 24 hours” and the “time to relief of itch” value is listed as “within a few minutes”. The “relief of skin itch” value (adult individual, forearm, 30% wt. in a topical cream, no other active agent) is “relieves the skin itch”. Besides, under setting [2], the “duration of relief from itching” value was “about a day” and the “time to relief from itching” value is “within minutes”. Also, the “time to relief from itching” value (three adults (one male, two female), skin itch of undetermined origin, about 10 to about 20 weight percent in water with quaternary ammonium preservative, pump spray) is “within a few minutes”. Moreover, where the note is “three adults, skin itch of undetermined origin, about 10 to about 20 weight percent in water, pump spray”, the “duration of relief from itching” value was “about one day”. Also, where the note is “three adults, about 10 to about 20 weight percent in water, pump spray to itching skin”, the adverse side effects result is recorded as “No adverse side effects were reported”.

For aluminum zirconium chlorhydrate, under setting [3], the “duration of relief of itch” value is on record as “about 24 hours” and the “time to relief of itch” value is “within minutes”.
